{"source": "patent US20190099404A1", "about": "“ANALGESIC COMPOUNDS” (ZENO ROYALTIES & MILESTONES, LLC, priority 2016, published 2019)", "test_system": "male ICR mice", "assay": "Formalin Paw Test", "assay_type": "in vivo", "settings": "30 mg/kg, intraperitoneal, given 10 minutes before formalin; for Early Phase: early/acute phase (0-10 minutes) after 2% formalin in hind paw; for Late Phase: late/tonic phase (10-35 minutes) after 2% formalin in hind paw", "description": "One test compound or the vehicle was administered to each mouse in each test group (8 mice per group). Non-fasted male ICR mice weighing 23±3 g were used. Test compounds were administered at a concentration of 30 mg/kg; morphine was administered at a concentration of 10 mg/kg; and acetaminophen was administered at a concentration of >100 mg/kg. The control group received the vehicle (5% DMSO/15% PEG400/10% HPbCD/0.9% Saline). After 10 minutes, a 2% formalin solution (0.02 mL) was injected into one hind paw (sub-plantar) of each mouse. Responses were measured every 5 minutes after the formalin injection for 35 minutes.\nThe results in Table A are for intraperitoneal administration. In Table A, ‘A’ designates <70 licks/sec, ‘B’ designates ≥70 licks/sec and <165 licks/sec, and ‘C’ designates ≥165 licks/sec.", "data": [{"smiles": "Nc1ccc2[nH]cnc2c1", "note": "[Compound 1]", "values": [{"measurement": "Early Phase", "value": "B (‘B’ designates ≥70 licks/sec and <165 licks/sec)"}, {"measurement": "Late Phase", "value": "C (‘C’ designates ≥165 licks/sec)"}]}, {"smiles": "Cn1ncc2cc(N)ccc21", "note": "[Compound 2]", "values": [{"measurement": "Early Phase", "value": "A (‘A’ designates <70 licks/sec)"}, {"measurement": "Late Phase", "value": "B (‘B’ designates ≥70 licks/sec and <165 licks/sec)"}]}, {"smiles": "NCc1cc2ccccn2n1", "note": "[Compound 3]", "values": [{"measurement": "Early Phase", "value": "A (‘A’ designates <70 licks/sec)"}, {"measurement": "Late Phase", "value": "C (‘C’ designates ≥165 licks/sec)"}]}, {"smiles": "NCc1cc2cc(F)ccc2[nH]1", "note": "[Compound 4]", "values": [{"measurement": "Early Phase", "value": "A (‘A’ designates <70 licks/sec)"}, {"measurement": "Late Phase", "value": "A (‘A’ designates <70 licks/sec)"}]}, {"smiles": "NCc1nc2cc(C(F)(F)F)ccc2s1", "note": "[Compound 5]", "values": [{"measurement": "Early Phase", "value": "A (‘A’ designates <70 licks/sec)"}, {"measurement": "Late Phase", "value": "A (‘A’ designates <70 licks/sec)"}]}, {"smiles": "Nc1nc2ccc(C(F)(F)F)cc2s1", "note": "[Compound 6]", "values": [{"measurement": "Early Phase", "value": "A (‘A’ designates <70 licks/sec)"}, {"measurement": "Late Phase", "value": "A (‘A’ designates <70 licks/sec)"}]}, {"smiles": "NCCc1nc2ccc(F)cc2[nH]1", "note": "[Compound 7]", "values": [{"measurement": "Early Phase", "value": "B (‘B’ designates ≥70 licks/sec and <165 licks/sec)"}, {"measurement": "Late Phase", "value": "A (‘A’ designates <70 licks/sec)"}]}, {"smiles": "NCc1nc2cc(F)ccc2[nH]1", "note": "[Compound 9]", "values": [{"measurement": "Early Phase", "value": "A (‘A’ designates <70 licks/sec)"}, {"measurement": "Late Phase", "value": "A (‘A’ designates <70 licks/sec)"}]}, {"smiles": "CC(C)(C)c1ccc2nc(N)sc2c1", "note": "[Compound 10]", "values": [{"measurement": "Early Phase", "value": "A (‘A’ designates <70 licks/sec)"}, {"measurement": "Late Phase", "value": "A (‘A’ designates <70 licks/sec)"}]}, {"smiles": "NCc1ccc2cncn2c1", "note": "[Compound 11]", "values": [{"measurement": "Early Phase", "value": "B (‘B’ designates ≥70 licks/sec and <165 licks/sec)"}, {"measurement": "Late Phase", "value": "C (‘C’ designates ≥165 licks/sec)"}]}]}
